Reference: patent US9682060B2, “Small molecules that induce intrinsic pathway apoptosis” (The Board of Trustees of the University of Illinois, priority 2015, dated 2017)
Non-standard residues stand in square brackets, D forms with d. Residues, ends and D or L forms follow the SMILES beside them. *: point of attachment. Nle = CCCC[C@H](N)C(=O)O; Cbz = O=C(OCc1ccccc1)*; CH2Cl = ClC*

Key:
Calpain/Cathepsin = conditions: cited from earlier work
Granzyme B = Granzyme B (Homo sapiens, UniProt P10144); conditions: cited from earlier work
U-937 cells = experiment: Mitochondrial permeability transition pore (MPTP) calcein-cobalt assay; format: cell-based, Human; conditions: calcein-cobalt quenching
Method: Mitochondrial Permeability Transition Pore (MPTP) Calcein-Cobalt Assay.
U-937 cells (1×10^6 cells/mL in HBSS) were loaded with calcein-AM (20 nM final concentration) for 45 minutes at 37° C. The cells were washed with HBSS and resuspended in RPMI and plated into a 24-well plate (1×10^6 cells in 1 mL). The cells were treated with Raptinal (10 μM) for 15, 30, 45, 60 and 90 minutes. Cobalt(II) chloride was added (10 μL of 80 mM stock in HBSS) to the cells 10 minutes prior to the end of the time points. The cells were pelleted and resuspended in HBSS (0.5 mL) and calcein fluorescence was measured by flow cytometry. As a positive control for MPTP, ionomycin and calcium were added to calcein-labeled cells in HBSS 10 minutes prior to analysis by flow cytometry.

Granzyme B, sequence (P10144 21-247, species assumed): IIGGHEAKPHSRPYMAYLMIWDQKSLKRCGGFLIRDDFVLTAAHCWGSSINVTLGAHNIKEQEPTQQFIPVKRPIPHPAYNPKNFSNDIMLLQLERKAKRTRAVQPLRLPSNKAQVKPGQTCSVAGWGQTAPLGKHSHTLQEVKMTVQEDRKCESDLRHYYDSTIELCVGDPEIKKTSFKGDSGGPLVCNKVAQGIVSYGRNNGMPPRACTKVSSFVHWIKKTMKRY

In the case of `CCCC[C@@H](C=O)NC(=O)[C@H](CC(C)C)NC(=O)[C@H](CC(C)C)NC(C)=O` [Calpain/Cathepsin Inhibitor I] (Ac-Leu-Leu-[Nle]-aldehyde), the Ki (Calpain/Cathepsin) is given as 120 to 230 nM.

For `CC(NC(=O)OCc1ccccc1)C(=O)NC(C)C(=O)NC(CC(=O)O)C(=O)CCl` (stereo not drawn) [Granzyme B Inhibitor I] (Cbz-Ala-Ala-Asp-CH2Cl; configuration not given here), the Ki (Granzyme B) is given as 300 nM.

For `C[C@H](CCC(=O)O)C[C@H](C)C[C@H](C)C(=O)/C=C(\O)[C@H](C)C[C@H](C)C/C=C/[C@@H](C)[C@@H](O)[C@@H](C)[C@@H](O)C[C@@H]1CC[C@@](C)([C@H]2CC[C@@](C)([C@@H](C)O)O2)O1` [lonomycin, ionomycin, reference compound], the “mitochondrial permeability transition pore (MPTP) formation” value (U-937 cells) was “able to induce MPTP”.
